Test results reported in patent publication US20260335277A1, “CHLOROTONIL DERIVATIVES” (priority 2023, published 2026).
Converted amounts (≈) assume the structure as drawn. Where two headings read alike, the source gives them in different places.

Experiments:
parasitemia = settings: mice, 4 day suppression test, 36-110 mg/kg oral, pilot experiments; cited from earlier work
zebrafish larvae = assay: Toxicity in zebrafish larvae (MTC / IC50); format: in vivo; settings: for IC50 in zebrafish larvae: exposed 3 days post fertilization, monitored 48 h; for Selectivity Index S. aureus: zebrafish IC50 / MIC S. aureus Newman; for Selectivity Index P. falc 3D7: zebrafish IC50 vs P. falciparum 3D7
Method: (§1) For toxicity screening, zebrafish larvae were exposed three days post fertilization and monitored for 48 h until five days post fertilization. All malformations and pathophysiological phenotypes were noted and used to determine the inhibitory concentration (IC50) of the respective derivative against zebrafish larvae. The selectivity index (SI) was then calculated using the IC50 and the MIC of either S. aureus or P. falciparum 3D7.

[1] = test system: clinical isolates from Gabon; settings: read-out: median IC50; cited from earlier work
[2] = test system: S. aureus N315 (methicillin-resistant, MRSA); assay: MIC testing (broth microdilution, EUCAST); format: cell-based; settings: for MIC: Staphylococcus aureus, MRSA
Method: (§2) Minimal inhibitory concentration (MIC) of the compounds in the present invention was determined using broth microdilution performed according to EUCAST guidelines (ISO20776-1:2019). S. aureus ATCC29213 and E. faecalis ATCC29212 served as quality control strains.

S. epidermidis DSM-28765 = assay: MIC testing (broth microdilution, EUCAST); format: cell-based; settings: for MIC: Staphylococcus epidermidis, DSM28765, S. epidermidis DSM-28765, read-out: MIC S. epiderm.; for MIC S. epiderm.: S. epidermidis DSM-28765
Method: as §2

[3] = test system: mature gametocytes (stages IV and V); settings: stage IV-V gametocytes; cited from earlier work
[4] = test system: chloroquine-resistant laboratory strains of Plasmodium falciparum; settings: cited from earlier work
Hemolysis = format: cell-based
Method: (§3) Complementing the toxicity profiling, ADME properties of the lead dehalogenil were determined. This had not been possible for the first generation frontrunner ChB1-Epo2 or the natural product ChA because of their poor limit of detection. […] Across species (mouse, rat, human), metabolic stability is high while plasma stability is moderate. Besides, no hemolysis and no inhibition of the metabolically important enzyme CYP3A4 was observed by both dehalogenil and ChA. Plasma protein binding (PPB) is >99.4% in all species.

Aqueous solubility = format: physicochemical
Method: as §3

[5] = test system: chloroquine-sensitive laboratory strains of Plasmodium falciparum; settings: cited from earlier work
Plasmodium falciparum = settings: cited from earlier work
CYP3A4 = assay: Inhibition of CYP3A4; format: in vitro ADME
Method: as §3

[6] = Toxicity in mouse models after multiple PO dosing; format: in vivo; settings: multiple PO dosing at 100 mg/kg
Description: (§4) In addition, standard in vitro ADME parameters cannot be uniquely determined since chlorotonil A concentrations in these assays were always below the limit of detection. […] Both compounds (chlorotonil A and B1-Epo2) could be administered at low doses intravenously, however, only when dissolved in a vehicle which is not suitable for further development as part of preclinic studies as it contained high amounts of organic solvents (10 vol. % ethanol, 5 vol. % DMSO).

P. falciparum = P. falciparum infection models, per oral; format: in vivo; settings: 50 mg/kg per oral
Description: as §4

[7] = test system: mature gametocytes (stages IV and V); assay: Activity against mature gametocytes (stage IV-V), bioluminescence assay; format: cell-based, P. falciparum
Method: Activity against gametocytes was determined using an in vitro bioluminescence assay as described previously (doi.org/10.1371/journal.pone.0035019).

[8] = Toxicity in zebrafish larvae (MTC / IC50); format: in vivo; settings: zebrafish, zebrafish larvae
Method: as §1

[9] = test system: E. faecium DSM-17050 (vancomycin-resistant, VRE); assay: MIC testing (broth microdilution, EUCAST); format: cell-based
Method: as §2

E. faecalis ATCC-29212 = assay: MIC testing (broth microdilution, EUCAST); format: cell-based; settings: for MIC: Enterococcus faecalis, ATCC29212, E. faecalis ATCC-29212; for MIC E. faecalis: E. faecalis ATCC-29212
Method: as §2

E. faecium DSM-20477 = assay: MIC testing (broth microdilution, EUCAST); format: cell-based; settings: for MIC E. faecium: E. faecium DSM-20477
Method: as §2

S. aureus Newman = assay: MIC testing (broth microdilution, EUCAST); format: cell-based
Method: as §2

[10] = test system: clinical isolates of S. aureus; assay: MIC 50/90 profiling in multidrug-resistant clinical isolates; format: cell-based; settings: Staphylococcus aureus; S. aureus clinical isolates (n = 100)
Method: as §2
(§5) Activity of dehalogenil against multidrug-resistant clinical isolates of S. aureus (n=100) and Enterococcus spp. […] Compared to the standard of care (linezolid, daptomycin and tigecyclin), dehalogenil MIC90 was lowered in both pathogens by 20-40-fold with unimodal distribution indicating no pre-existing resistances.

E. faecium = assay: as above; format: cell-based; settings: Enterococcus faecium; for MIC: read-out: MIC range; for MIC50 / MIC90: E. faecium (n = 98)
Method: as §2, §5

[11] = cited from earlier work
S. aureus USA300LAC = assay: S. aureus blood infection (sepsis) model; format: in vivo, mouse (CD-1); settings: 60 mg/kg
Method: Dehalogenil was further tested in a Staphylococcus blood infection (sepsis) model, alongside linezolid as reference compound. Mice were infected using S. aureus USA300LAC (10^8 CFU/animal) and subsequently treated with a daily total of 5, 10 or 25 mg/kg SC dehalogenil, split into two doses (8 h interval, BID regimen) until 3 days post infection.
Mice were infected intravenously using S. aureus USA300LAC (10^8 CFU/mice). Compounds were administered twice daily starting day 0 until day 3, with the daily total dose indicated. Curves were compared via Mantel-Cox test (Prism), with ***: p<0.001 and **: p<0.01.

[12] = zebrafish IC50 / MIC S. aureus Newman, read-out: Selectivity Index S. aureus
[13] = zebrafish IC50 vs P. falciparum 3D7, read-out: Selectivity Index P. falc 3D7

SMILES	IC50 in zebrafish larvae (zebrafish larvae) [nM]	selectivity ratio [8, 12]	selectivity ratio [8, 13]	MIC VRE [9] [µg/mL]	MIC MRSA [2] [µg/mL]	MIC S. epiderm. (S. epidermidis DSM-28765) [µg/mL]	MIC E. faecium (E. faecium DSM-20477) [µg/mL]	MIC S. aureus (S. aureus Newman) [µg/mL]	MIC E. faecalis (E. faecalis ATCC-29212) [µg/mL]	MIC50 [10] [µg/mL]	MIC90 [10] [µg/mL]	MIC (E. faecium) [µg/mL]	MIC50 (E. faecium) [µg/mL]	MIC90 (E. faecium) [µg/mL]	other results
CC1=C[C@@H](C)[C@H]2[C@@H]3C(=O)C(Cl)(Cl)C(=O)[C@H](C)C(=O)O[C@@H](C)/C=C/C=C\[C@@H](C)[C@@H]3C=C[C@@H]2C1 [ChA, reference compound]	1090														reduced parasitemia (parasitemia): > 90%; toxicity effects in zebrafish larvae models (zebrafish larvae; comparative studies): cardiotoxic, hepatotoxic and developmental toxicity effects; IC50 [1]: 15.2 nM; MIC [2]: 0.05 µg/mL (≈ 0.104 µM); MIC (S. epidermidis DSM-28765): 0.05 µg/mL (≈ 0.104 µM); gametocytocidal activity compared with other tested compounds [3]: superior activity to all other tested compounds in this assay, besides epoxomicin; IC50 [4]: 18 nM; hemolysis (Hemolysis): no hemolysis; water solubility (Aqueous solubility): poor water solubility; IC50 [5]: 9 nM; development of resistant parasites in vitro by drug pressure (Plasmodium falciparum): not possible to develop resistant parasites in vitro; inhibition of CYP3A4 (CYP3A4): no inhibition; toxicity in mouse models [6]: general adverse effects, and cardio- and hepatotoxicity; efficacy in P. falciparum infection model (cure) (P. falciparum): full cure; IC50 ([7]; Plasmodium falciparum): 9.5 ± 3 nM
CC1C=CC=CC(C)C2C=CC3CC4(C)OC4C(C)C3C2C(=O)CC(=O)C(C)C(=O)O1 (stereo not drawn) [Dehalogenil-Epo1]	9850	1.31	4.9	3.2 (≈ 7.5 µM)	3.2 (≈ 7.5 µM)	3.2 (≈ 7.5 µM)	3.2 (≈ 7.5 µM)	3.2 (≈ 7.5 µM)							MIC (E. faecalis ATCC-29212): 3.2 µg/mL (≈ 7.5 µM)
CC1C=CC=CC(C)C2C=CC3CC4(C)OC4C(C)C3C2C(=O)CC(=O)C(C)C(=O)O1 (stereo not drawn) [Dehalogenil-Epo2]	1220			0.4 (≈ 0.938 µM)	0.2 (≈ 0.469 µM)	0.8 (≈ 1.88 µM)	0.8 (≈ 1.88 µM)	0.4 (≈ 0.938 µM)	1.6 (≈ 3.75 µM)						Selectivity Index S. aureus (zebrafish larvae): 1.30; Selectivity Index P. falc 3D7 (zebrafish larvae): 6.2
CCCCCCCCCC(=O)N[C@@H](Cc1c[nH]c2ccccc12)C(=O)N[C@H](CC(N)=O)C(=O)N[C@@H](CC(=O)O)C(=O)N[C@@H]1C(=O)NCC(=O)N[C@@H](CCCN)C(=O)N[C@@H](CC(=O)O)C(=O)N[C@H](C)C(=O)N[C@@H](CC(=O)O)C(=O)NCC(=O)N[C@H](CO)C(=O)N[C@@H]([C@H](C)CC(=O)O)C(=O)N[C@@H](CC(=O)c2ccccc2N)C(=O)O[C@@H]1C [daptomycin]										0.5 (≈ 0.309 µM)	4 (≈ 2.47 µM)	0.5 to 4 (≈ 0.309 to 2.47 µM)	2 (≈ 1.23 µM)	4 (≈ 2.47 µM)	
CC1=CC(C)C2C(C=CC3C(C)C=CC=CC(C)OC(=O)CC(=O)CC(=O)C32)C1 (stereo not drawn) [dehalogenil-2′DM, 2′Demethyldehalogenil]	27030	13.4	66.2												MIC ([9]; Enterococcus faecium): 0.8 µg/mL (≈ 2.02 µM); MIC [2]: 0.8 µg/mL (≈ 2.02 µM); MIC (E. faecalis ATCC-29212): 1.6 µg/mL (≈ 4.04 µM); MIC (S. epidermidis DSM-28765): 3.2 µg/mL (≈ 8.07 µM); MIC (E. faecium DSM-20477; Enterococcus faecium, DSM20477, E. faecium DSM-20477): 0.8 µg/mL (≈ 2.02 µM); MIC (S. aureus Newman; Staphylococcus aureus, NEWMAN): 0.8 µg/mL (≈ 2.02 µM); IC50 ([7]; Plasmodium falciparum): 499 ± 86.8 nM
CC1=CC(C)C2C(C=CC3C(C)C=CC=CC(C)OC(=O)C(C)C(=O)CC(=O)C32)C1 (stereo not drawn) [dehalogenil-2′Epi]	38460	78.9	1370	0.1 (≈ 0.244 µM)	0.1 (≈ 0.244 µM)	0.4 (≈ 0.974 µM)	0.05 (≈ 0.122 µM)	0.2 (≈ 0.487 µM)	0.2 (≈ 0.487 µM)						IC50 [7]: 25.2 ± 1.63 nM
CC[C@H](C)[C@H](NC(=O)[C@H]([C@@H](C)CC)N(C)C(C)=O)C(=O)N[C@H](C(=O)N[C@@H](CC(C)C)C(=O)[C@@]1(C)CO1)[C@@H](C)O [epoxomicin]															toxic effects in vivo [11]: shows toxic effects in vivo
CC(=O)NC[C@H]1CN(c2ccc(N3CCOCC3)c(F)c2)C(=O)O1 [linezolid]										4 (≈ 11.9 µM)	8 (≈ 23.7 µM)	0.5 to 64 (≈ 1.48 to 190 µM)	4 (≈ 11.9 µM)	4 (≈ 11.9 µM)	survival (S. aureus USA300LAC): survival of all animals
CC1=C[C@@H](C)[C@H]2[C@@H]3C(O)=C(SS)C(=O)[C@H](C)C(=O)O[C@@H](C)/C=C/C=C\[C@@H](C)[C@@H]3C=C[C@@H]2C1 [thiotonil]				0.025 (≈ 0.0527 µM)	0.4 (≈ 0.843 µM)	0.4 (≈ 0.843 µM)	0.025 (≈ 0.0527 µM)	0.4 (≈ 0.843 µM)	0.2 (≈ 0.421 µM)						Selectivity Index S. aureus (zebrafish larvae): >62.5; Selectivity Index P. falc 3D7 (zebrafish larvae): >892.9; IC50 [7]: 67.4 ± 8.6 nM
CN(C)c1cc(NC(=O)CNC(C)(C)C)c(O)c2c1C[C@H]1C[C@H]3[C@H](N(C)C)C(=O)C(C(N)=O)=C(O)[C@@]3(O)C(=O)C1=C2O [tigecyclin]										4 (≈ 6.83 µM)	8 (≈ 13.7 µM)	0.5 to 16 (≈ 0.854 to 27.3 µM)	2 (≈ 3.41 µM)	2 (≈ 3.41 µM)	MIC [10]: 1 to 16 µg/mL (≈ 1.71 to 27.3 µM)
